Data: patent US9073940B2, “Tricyclic pyrazol amine derivatives” (MERCK SERONO SA, priority 2009, dated 2015)
pIC50: −log10 of the molar value.

System: 4 PI3K isoforms (Human recombinant GST-PI3K)
Experiment: PI3K scintillation proximity assay, best IC50 obtained with the four isoforms (alpha, beta, delta, gamma)
Assay type: biochemical
Conditions: best IC50 obtained with the four isoforms of PI3K; read-out: Best potency measured on the 4 PI3K isoforms

Molecule O=C(c1nn(C2CCCN(CC3CCOC3)C2)c2c1CS(=O)(=O)c1ccccc1-2)N1CCOCC1 (centres unmarked) [Example 265, 3-(Morpholin-4-ylcarbonyl)-1-[1-(tetrahydrofuran-3-ylmethyl)piperidin-3-yl]-1,4-dihydrothiochromeno[4,3-c]pyrazole 5,5-dioxide] has a pIC50 of 7.01.
Work on COC1CCN(Cc2cccc(-n3nc(C(=O)N4CCOCC4)c4c3-c3ccccc3S(=O)(=O)C4)c2)C1 (centres unmarked) [Example 266, 1-{3-[(3-Methoxypyrrolidin-1-yl)methyl]phenyl}-3-(morpholin-4-ylcarbonyl)-1,4-dihydrothiochromeno[4,3-c]pyrazole 5,5-dioxide] yielded a pIC50 of 6.46.
For COC1CCN(Cc2ccc(-n3nc(C(=O)N4CCOCC4)c4c3-c3ccccc3S(=O)(=O)C4)cc2)C1 (centres unmarked) [Example 267, 1-{4-[(3-Methoxypyrrolidin-1-yl)methyl]phenyl}-3-(morpholin-4-ylcarbonyl)-1,4-dihydrothiochromeno[4,3-c]pyrazole 5,5-dioxide], the pIC50 was 7.23.
O=C(c1nn(-c2ccc(CN3CCC(F)(F)CC3)cc2)c2c1CS(=O)(=O)c1ccccc1-2)N1CCOCC1 [Example 268, 1-{4-[(4,4-Difluoropiperidin-1-yl)methyl]phenyl}-3-(morpholin-4-ylcarbonyl)-1,4-dihydrothiochromeno[4,3-c]pyrazole 5,5-dioxide] showed a pIC50 of 6.64.
O=C(c1nn(C2CCN(CCC3CCOCC3)C2)c2c1CS(=O)(=O)c1ccccc1-2)N1CCOCC1 (centres unmarked) [Example 270, 3-(Morpholin-4-ylcarbonyl)-1-{1-[2-(tetrahydro-2H-pyran-4-yl)ethyl]pyrrolidin-3-yl}-1,4-dihydrothiochromeno[4,3-c]pyrazole 5,5-dioxide] gave a pIC50 of 6.55.
In the case of O=C(c1nn(-c2ccc(CN3CC(F)(F)C3)cc2)c2c1CS(=O)(=O)c1ccccc1-2)N1CCOCC1 [Example 271, 1-{4-[(3,3-Difluoroazetidin-1-yl)methyl]phenyl}-3-(morpholin-4-ylcarbonyl)-1,4-dihydrothiochromeno[4,3-c]pyrazole 5,5-dioxide], the pIC50 was 6.40.
COC1CN(Cc2ccc(-n3nc(C(=O)N4CCOCC4)c4c3-c3ccccc3S(=O)(=O)C4)cc2)C1 [Example 272, 1-{4-[(3-Methoxyazetidin-1-yl)methyl]phenyl}-3-(morpholin-4-ylcarbonyl)-1,4-dihydrothiochromeno[4,3-c]pyrazole 5,5-dioxide] showed a pIC50 of 6.78.
O=C(c1nn(C2CCCN(CCN3CC(F)(F)C3)C2)c2c1CS(=O)(=O)c1ccccc1-2)N1CCOCC1 (centres unmarked) [Example 273, 1-{1-[2-(3,3-Difluoroazetidin-1-yl)ethyl]piperidin-3-yl}-3-(morpholin-4-ylcarbonyl)-1,4-dihydrothiochromeno[4,3-c]pyrazole 5,5-dioxide] gave a pIC50 of 7.44.
Molecule O=C(c1nn(C2CCN(CCCl)C2)c2c1CS(=O)(=O)c1ccccc1-2)N1CCOCC1 (centres unmarked) [Example 274] has a pIC50 of 6.52.
For O=C(c1nn(C2CCN(CCN3CCOCC3)C2)c2c1CS(=O)(=O)c1ccccc1-2)N1CCOCC1 (centres unmarked) [Example 275, 3-(Morpholin-4-ylcarbonyl)-1-[1-(2-morpholin-4-ylethyl)pyrrolidin-3-yl]-1,4-dihydrothiochromeno[4,3-c]pyrazole 5,5-dioxide], the pIC50 was 6.72.
Work on O=C(NC1CCCCC1)N1CCC(n2nc(C(=O)N3CCOCC3)c3c2-c2ccccc2S(=O)(=O)C3)C1 (centres unmarked) [Example 276] yielded a pIC50 of 6.06.
O=C(c1nn(C2CCN(CCN3CCC(F)CC3)C2)c2c1CS(=O)(=O)c1ccccc1-2)N1CCOCC1 (centres unmarked) [Example 277, 1-{1-[2-(4-Fluoropiperidin-1-yl)ethyl]pyrrolidin-3-yl}-3-(morpholin-4-ylcarbonyl)-1,4-dihydrothiochromeno[4,3-c]pyrazole 5,5-dioxide] gave a pIC50 of 6.83.
With COCc1ccc(-n2nc(C(=O)N3CCOCC3)c3c2-c2ccccc2S(=O)(=O)C3)cc1 [Example 278, 1-[4-(Methoxymethyl)phenyl]-3-(morpholin-4-ylcarbonyl)-1,4-dihydrothiochromeno[4,3-c]pyrazole 5,5-dioxide] the pIC50 was 6.18.
For O=C(CC1CCCCC1)N1CCC(n2nc(C(=O)N3CCOCC3)c3c2-c2ccccc2S(=O)(=O)C3)C1 (centres unmarked) [Example 279, 1-[1-(Cyclohexylacetyl)pyrrolidin-3-yl]-3-(morpholin-4-ylcarbonyl)-1,4-dihydrothiochromeno[4,3-c]pyrazole 5,5-dioxide], the pIC50 was 6.15.
Molecule O=C(c1nn(C2CCCN(CCC3CCOCC3)C2)c2c1CS(=O)(=O)c1c(F)cccc1-2)N1CCOCC1 (centres unmarked) [Example 280, 6-Fluoro-3-(morpholin-4-ylcarbonyl)-1-{1-[2-(tetrahydro-2H-pyran-4-yl)ethyl]piperidin-3-yl)-1,4-dihydrothiochromeno[4,3-c]pyrazole 5,5-dioxide] has a pIC50 of 7.66.
In the case of O=C(c1nn(C2CCCN(CCN3CCC(F)CC3)C2)c2c1CS(=O)(=O)c1ccccc1-2)N1CCOCC1 (centres unmarked) [Example 281, 1-{1-[2-(4-Fluoropiperidin-1-yl)ethyl]piperidin-3-yl}-3-(morpholin-4-ylcarbonyl)-1,4-dihydrothiochromeno[4,3-c]pyrazole 5,5-dioxide], the pIC50 was 7.47.
O=C(c1nn(C2CCCN(CCN3CCCC(F)(F)C3)C2)c2c1CS(=O)(=O)c1ccccc1-2)N1CCOCC1 (centres unmarked) [Example 284, 1-{1-[2-(3,3-Difluoropiperidin-1-yl)ethyl]piperidin-3-yl}-3-(morpholin-4-ylcarbonyl)-1,4-dihydrothiochromeno[4,3-c]pyrazole 5,5-dioxide] was tested, and the pIC50 was 7.08.
Molecule O=C(c1nn(C2CCN(CCC3CCOCC3)CC2)c2c1CS(=O)(=O)c1ccccc1-2)N1CCOCC1 [Example 285, 3-(morpholin-4-ylcarbonyl)-1-{1-[2-(tetrahydro-2H-pyran-4-yl)ethyl]piperidin-4-yl}-1,4-dihydrothiochromeno[4,3-c]pyrazole 5,5-dioxide] has a pIC50 of 6.16.
For O=C(c1nn(C2CCN(CCn3cccn3)C2)c2c1CS(=O)(=O)c1ccccc1-2)N1CCOCC1 (centres unmarked) [Example 286, 3-(Morpholin-4-ylcarbonyl)-1-{1-[2-(1H-pyrazol-1-yl)ethyl]pyrrolidin-3-yl}-1,4-dihydrothiochromeno[4,3-c]pyrazole 5,5-dioxide], the pIC50 was 6.59.
For O=C(CC1CCOCC1)N1CCC(n2nc(C(=O)N3CCOCC3)c3c2-c2ccccc2S(=O)(=O)C3)C1 (centres unmarked) [Example 287, 3-(Morpholin-4-ylcarbonyl)-1-[1-(tetrahydro-2H-pyran-4-ylacetyl)pyrrolidin-3-yl]-1,4-dihydrothiochromeno[4,3-c]pyrazole 5,5-dioxide], the pIC50 was 6.13.
With O=C(c1nn(C2CCN(CCn3ccnc3)C2)c2c1CS(=O)(=O)c1ccccc1-2)N1CCOCC1 (centres unmarked) [Example 288, 1-{1-[2-(1H-Imidazol-1-yl)ethyl]pyrrolidin-3-yl}-3-(morpholin-4-ylcarbonyl)-1,4-dihydrothiochromeno[4,3-c]pyrazole 5,5-dioxide] the pIC50 was 6.78.
With CC(=O)Nc1nc2c(s1)S(=O)(=O)Cc1c(C(=O)N3CCOCC3)nn(C3CCOCC3)c1-2 [Example 289, N-[3-(Morpholin-4-ylcarbonyl)-5,5-dioxido-1-(tetrahydro-2H-pyran-4-yl)-1,4-dihydropyrazolo[3′,4′:4,5]thiopyrano[3,2-d][1,3]thiazol-7-yl]acetamide] the pIC50 was 6.55.
Work on O=C(c1nn(C2CCN(CCN3CCOCC3)CC2)c2c1CS(=O)(=O)c1ccccc1-2)N1CCOCC1 [Example 290, 3-(Morpholin-4-ylcarbonyl)-1-[1-(2-morpholin-4-ylethyl)piperidin-4-yl]-1,4-dihydrothiochromeno[4,3-c]pyrazole 5,5-dioxide] yielded a pIC50 of 6.43.
